Reference: US20030073744A1, “Agent for enhancing cerebral acetylcholine release” (priority 1999, published 2003)

Experiments:
SHRSP = test: Test of improving effect of disturbed sleep pattern (EEG/EMG, REMS); format: in vivo, rat; conditions: 15 mg/kg orally twice daily over 5 consecutive days, FIG. 7
From the text: Test animals: Male SHRSP at 13 weeks of age, which received 1% NaCl solution instead of water over 5 weeks, and Wistar Kyoto rats (WKY) at the same age.
Test method: Animals were anesthetized, and electrodes for electroencephalogram (EEG) and a sensor for brain temperature were implanted into the cerebral cortex and electrodes for electromyogram (EMG) were implanted into the back cervical muscle. All variables were continuously recorded for 7 days, and the behavioral states of rats were classified into wakefulness, REMS, NREMS by analyzing the amplitude and frequency of EEG and EMG waves. 1-p-Anisoyl-2-pyrrolidinone at 15 mg/kg or vehicle was administered orally twice daily (morning and evening) over 5 consecutive days.

aged Wistar rats = test: Test of the ameliorating effect of impaired circadian rhythm (food-motivated anticipatory activity); format: in vivo, rat; conditions: 30 and 100 mg/kg orally once daily for 7 consecutive days, FIG. 5
Method: Test animals: Male Wistar rats at 9 weeks of age (young group) and around 30 months of age (aged group).
Test method: Animals were individually housed and had free access to food and water. After fasting for 24 hours (Day 0), feeding was restricted to only 1 hour/day from 13:30 for 6 consecutive days. Food was again withheld on Day 7, and food-motivated circadian anticipatory activity was investigated. 1-p-Anisoyl-2-pyrrolidinone at 30 and 100 mg/kg or vehicle was orally administered immediately after the feeding time, once daily for 7 consecutive days. Spontaneous motor activity was measured in each home cage.

ACh release = test: Test of the enhancing effect of ACh release (brain microdialysis in freely moving SHRSP); format: in vivo, rat; conditions: for enhancement of ACh release (percent change over baseline): perfused for 20 minutes through microdialysis probe (10^-7 to 10^-5 M)
From the text: Test animals: Male stroke-prone spontaneously hypertensive rats (SHRSP) at 13 weeks of age, which received 1% NaCl solution instead of water for 5 weeks prior to the experiment. Test method: SHRSP were anesthetized and a guide cannula was implanted into the thalamus, dorsal hippocampus and prefrontal cortex. After recovery, a concentric microdialysis probe was inserted into the guide cannula and perfused with normal Ringer solution containing 10^−5 M eserine (SIGMA, St. Louis, USA) at a constant flow rate of 2 μl/min under freely moving condition. […] The dialysates for every 20 minutes were collected and injected into the high-pressure liquid chromatography system to quantify extracellular ACh levels. ACh release was expressed as percent change over the average of three consecutive stable samples collected before drug perfusion.

rats [1] = conditions: repeated oral administration over 4 weeks, up to 600 mg/kg
rats [2] = test: Acute toxicity after oral administration to rats (LD50); format: in vivo, rat; conditions: both sexes
[3] = as above; format: in vivo, rat; conditions: rat, in vivo
[4] = dorsal hippocampus of SHRSP, FIG. 2
[5] = prefrontal cortex of SHRSP, FIG. 3

Row | Structure (SMILES) | reduced diurnal REMS (SHRSP) | impaired food-motivated anticipatory activity (aged Wistar rats) | effect on ACh release (ACh release; any cerebral regions (thalamus, dorsal hippocampus, prefrontal cortex) of SHRSP) | sub-acute toxicity, such as lethality and abnormality in hematological, hematobiochemical and toxipathological tests (rats [1]) | enhancement of ACh release (percent change over baseline) (ACh release; [4]) [%] | enhancement of ACh release (percent change over baseline) (ACh release; [5]) [%] | enhancement of ACh release (percent change over baseline) (ACh release; thalamus of SHRSP, FIG. 1) [%] | acute toxicity (LD50 values) (rats [2]) | LD50 ([3]; female animals) [mg/kg] | LD50 ([3]; male animals) [mg/kg]
1 | COc1ccc(C(=O)N2CCCC2=O)cc1 [1-p-anisoyl-2-pyrrolidinone, 1-p-Anisoyl-2-pyrrolidinone] | ameliorated | significantly ameliorated | not observed |  |  |  |  |  |  | 
2 | COc1ccc(C(=O)NCCCC(=O)O)cc1 [N-anisoyl-GABA, N-anisoyl-γ-aminobutyric acid] |  |  |  | not observed | 48 | 70 | 32 | more than 5,000 mg/kg |  | 
3 | COc1ccc(C(=O)O)cc1 [p-anisic acid] |  |  |  | not observed | 51 | 61 | 22 |  | 2120 | 1810
